Data from patent US20220267479A1, “POLYIODIDE BINDING COMPOUNDS AND METHODS OF USE THEREOF” (North Carolina State University, priority 2019, published 2022).
Where “and” joins values, the source holds several entries; their conditions need not be identical. Equal values may be shown once.

Legend:
[1] = test system: rat liver homogenate; assay: Indigoid-dye formation in rat liver homogenate; assay type: biochemical; conditions: indoxyl 1 mM, 5% DMF, 37° C., 24 h
Procedure: Finally, indigoid-dye formation was carried out in rat liver homogenate (Table 1, rightmost column).
Reactions in rat liver homogenate. An indoxyl compound in DMF (5 μL, 20 mM) was mixed with rat liver homogenate (95 μL). The reaction mixture was incubated at 37° C. for 24 h. After allowing to cool to room temperature, the reaction mixture was diluted with DMF (900 μL). The mixture was heated at 70° C. for 2 min and then centrifuged for 2 min. The supernatant was separated from any precipitate. This extraction procedure was repeated two or three times with DMF (100-500 μL). The combined supernatant (1500-1800 μL) was analyzed by absorption spectroscopy.

[2] = test system: tritosomes; assay: Indigoid dye formation with tritosomes; assay type: biochemical
Procedure: The results from the glucosidase survey prompted several further experiments. First, a parallel set of studies was carried out with inclusion of several oxidants commonly employed in histochemical studies, given that the indigoid dye forming process requires the presence of an oxidant. […] The activity of the β-glucosidase was affected only slightly in the presence of a non-ionic detergent. To verify that the results observed in Table 1 were reliable, a 5-mg scale reaction of 33 was carried out to isolate indigo 43, which was obtained in 66% yield (Scheme 7). The 66% isolated yield corresponded well with the enzymatic yield of […] (Table 1, entry 15).
General methods. β-Glucosidase from almonds (lyophilized powder, >2 units/mg solid) and peroxidase from horseradish were purchased from Sigma-Aldrich. O-Glucosidase from Agrobacterium sp. (recombinant, suspension in 3.2 M (NH4)2SO4) was purchased from Megazyme; the concentration in solution was determined by absorption spectroscopy with E^0.1%32 2.20 cm^−1 at 280 nm.^37 Tritosomes were purchased from XenoTech. Rat liver homogenate was purchased from MP Biomedicals.

[3] = test system: β-glucosidase from almonds; assay: Indigogenic reaction with β-glucosidase from almonds; assay type: biochemical
Text: With diverse glucosyl-indoxyl compounds in hand, we carried out a set of studies to examine indigoid-dye formation upon enzymatic cleavage of the glucosyl unit under physiological conditions. Altogether, 14 new (15, 16, 19-27, 30, 33, 41) and 2 known (1, 42) synthetic indoxyl-glucosides (lacking acetyl protecting groups) were examined in an effort to identify suitable combinations of substituents to support both bioconjugation and indigoid dye formation. In initial studies, β-glucosidase from almonds was employed to trigger indigoid dye formation (Table 1). Thus, a mixture of this enzyme (1 unit/mL) and an indoxyl β-glucoside (0.1 μmol, 1 mM) in acetate buffer (pH 5, containing 5% DMF) was incubated at 37° C. for 16-19 h. All indigoid dye was dissolved in each case for quantitative evaluation.
Reactions with β-glucosidase from almonds. An indoxyl compound in DMF (5 μL, 20 mM) and β-glucosidase from almonds in H2O (10 μL, 10 units/mL) were mixed with acetate buffer (85 μL, 50 mM, pH 5.0). The reaction mixture was incubated at 37° C. for 16-19 h and then allowed to cool to room temperature. DMF (300 μL for the reactions of 15, 16, 1, 19, 22, and 25; or 900 μL for the reactions of 42, 20, 21, 23, 24, 26, 27, 30, and 31, respectively) was added to dissolve any indigoid precipitate. The resulting solution was analyzed by absorption spectroscopy.

[4] = biological target: T1, β-glucosidase from Agrobacterium (Agrobacterium sp., UniProt P12614); assay: Indigogenic reaction with β-glucosidase from Agrobacterium; assay type: biochemical
T1 construct: purchased Megazyme; host or cells: recombinant
T1 sequence (P12614 1-459): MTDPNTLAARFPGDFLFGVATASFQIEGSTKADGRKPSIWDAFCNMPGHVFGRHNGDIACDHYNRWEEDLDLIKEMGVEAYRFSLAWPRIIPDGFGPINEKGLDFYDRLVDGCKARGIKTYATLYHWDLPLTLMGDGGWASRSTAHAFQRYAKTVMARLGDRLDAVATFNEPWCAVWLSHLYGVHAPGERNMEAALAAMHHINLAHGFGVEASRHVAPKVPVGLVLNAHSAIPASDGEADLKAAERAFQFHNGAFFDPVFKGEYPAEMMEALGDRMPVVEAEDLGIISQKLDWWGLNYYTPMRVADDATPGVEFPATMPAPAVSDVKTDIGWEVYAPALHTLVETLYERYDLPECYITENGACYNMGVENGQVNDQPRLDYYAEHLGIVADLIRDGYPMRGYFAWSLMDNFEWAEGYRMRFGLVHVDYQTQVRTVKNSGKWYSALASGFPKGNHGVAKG
Procedure: Next, the β-glucosidase from Agrobacterium sp. was investigated as the trigger enzyme for indigoid dye formation. […]
Reactions with β-glucosidase from Agrobacterium. An indoxyl compound in DMF (2 μL, 5 mM) and β-glucosidase from Agrobacterium in 10 mM phosphate buffer [2 μL, 10 μM, pH 7.0, containing 50 mM NaCl and 0.6 M (NH4)2SO4] were mixed with 50 mM phosphate buffer (96 μL, pH 7.0). The reaction mixture was incubated at 37° C. for 2 h and then centrifuged for 3 min. Any precipitate was separated from the supernatant and dissolved in DMF (200 μL). The resulting solution was analyzed by absorption spectroscopy. The experiment was repeated three times.

[5] = biological target: T2, β-glucosidase from Agrobacterium plus rat liver homogenate (Agrobacterium sp., UniProt P12614); assay: Reaction of 33 with β-glucosidase from Agrobacterium in rat liver homogenate; assay type: biochemical; conditions: 33 100 μM, enzyme 200 nM, 2% DMF, 37° C., 4 h; ε = 2.6 × 10^4 M^-1 cm^-1
T2 construct: purchased Megazyme; host or cells: recombinant
T2 sequence (P12614 1-459): T1 sequence (P12614 1-459)
Procedure: Finally, indigoid-dye formation was carried out in rat liver homogenate (Table 1, rightmost column). Good yields were obtained in the case of 42 (65%, entry 4) and 27 (50%, entry 13). […] However, when β-glucosidase from Agrobacterium (200 nM) was present in rat liver homogenate, the indigoid dye was obtained in 81% yield (entry 15).
Reaction of 33 with β-glucosidase from Agrobacterium in rat liver homogenate. A DMF solution of 33 (2 μL, 5 mM) and β-glucosidase from Agrobacterium in 10 mM phosphate buffer [2 μL, 10 μM, pH 7.0, containing 50 mM NaCl and 0.6 M (NH4)2SO4] were mixed with rat liver homogenate (96 μL). The reaction mixture was incubated at 37° C. for 4 h and then centrifuged for 3 min. Any precipitate was separated from the supernatant and then suspended in DMF (200 μL). The suspension was centrifuged for 3 min. The supernatant was analyzed by absorption spectroscopy.

[6] = assay type: physicochemical; conditions: pH 7.4
Text: Water solubility of the indoxyl glucoside is important for biological applications. […] Therefore, this compound is not suitable for bioconjugation. The synthesis of 34 relies on successive substitution of the dichloroanilinotriazine unit (derived from N,N-bis(2-methoxyethyl)aniline^31 and cyanuric chloride) with indoxyl-glucoside-PEG-OH and BCN-PEG-NH2 building blocks.
To improve the water solubility of the indoxyl species, a sulfobetaine unit^32,33 was incorporated as a water-solubilizing group. Sulfobetaines are stable zwitterions over a wide range of pH. Synthesis of an indoxyl bearing a sulfobetaine unit is illustrated in Scheme 6. Boc-piperazine (35) was treated with 1,3-propane sultone to afford 36 in 63% yield. Quaternization of the tertiary nitrogen atom in 36 with 3-bromopropanol gave Boc-protected sulfobetaine 37 in 69% yield. The Boc group was cleaved with trifluoroacetic acid (TFA) to afford piperazine-TFA salt 38 in 97% yield. The N-acetyl group of 32 was selectively deprotected with NaHCO3/MeOH in 84% yield. The product 39, piperazine-TFA salt 38, and BCN-amine 14 were assembled at a triazine ring via one-flask, successive substitution of cyanuric chloride to afford 40 in 51% yield. Cleavage of the acetyl groups of sulfobetaine 40 provided 41 in 98% yield.

[7] = as E4 but ε = 2.6 × 10^4 M^-1 cm^-1 measured for 43

In the case of “5-[(Benzylcarbamoyl)oxy)]-1H-indole-3-yl β-D-glucopyranoside [Indoxyl 16]”, the “Yield (%) rat liver homogenate” value ([1]; ε = 1.27 × 10^4 M^-1 cm^-1) is reported as 9% and the “Indigoid dye formation with tritosomes” value [2] is reported as “low yield of indigoid dye”.

With `COc1nc(Oc2ccc3[nH]cc(O[C@@H]4O[C@H](CO)[C@@H](O)[C@H](O)[C@H]4O)c3c2)nc(N2CCOCC2)n1` [Indoxyl 19, 5-[(4-Methoxy-6-morpholino-1,3,5-triazin-2-yl)oxy]-1H-indole-3-yl β-D-glucopyranoside] the “Yield (%) β-glucosidase from almonds” value ([3]; indoxyl 1 mM, enzyme 1 unit/mL, acetate buffer pH 5, 5% DMF, 37° C., 16-19 h, ε = 1.27 × 10^4 M^-1 cm^-1 (measured for 4)) was <1%, the “Yield (%) β-glucosidase from Agrobacterium” value ([4]; indoxyl 100 μM, enzyme 200 nM, 0.05 M phosphate buffer pH 7.0, 2% DMF, 37° C., 2 h, n=3, ε = 1.27 × 10^4 M^-1 cm^-1) was 46 ± 5% and the “Yield (%) rat liver homogenate” value ([1]; ε = 1.27 × 10^4 M^-1 cm^-1) was <5%. The “Indigoid dye formation with tritosomes” value [2] was “low yield of indigoid dye”.

For `OCCOCCOCCOc1c(Br)cc2[nH]cc(O[C@@H]3O[C@H](CO)[C@@H](O)[C@H](O)[C@H]3O)c2c1Br` [Indoxyl 33, 4,6-Dibromo-5-[1-hydroxy-3,6,9-trioxanon-9-yl]-1H-indol-3-yl β-D-glucopyranoside], the “Yield (%) β-glucosidase from almonds” value ([3]; as E1 but ε = 2.6 × 10^4 M^-1 cm^-1 measured for 43) was 52% and 52^g %, the “Yield of indigoid dye” value ([4]; 33 at 1.0 μM, enzyme 200 nM, pH 7.0, 2 h) was 41% and the “Yield of indigoid dye” value ([4]; 33 at 1.0 μM, enzyme 200 nM, pH 7.0, 14 h) was 57%. The “Yield of indigoid dye” value ([4]; 33 at 1.8 μM, enzyme 200 nM, pH 7.0, 2 h) was 42%, the “Yield of indigoid dye” value ([4]; 33 at 1.8 μM, enzyme 200 nM, pH 7.0, 14 h) was 79% and the “Yield of indigoid dye” value ([4]; 33 at 3.2 μM, enzyme 200 nM, pH 7.0, 2 h) was 51%. The “Yield of indigoid dye” value ([4]; 33 at 3.2 μM, enzyme 200 nM, pH 7.0, 14 h) was 88%, the “Yield of indigoid dye” value ([4]; 33 at 5.6 μM, enzyme 200 nM, pH 7.0, 2 h) was 62% and the “Yield of indigoid dye” value ([4]; 33 at 10 μM, enzyme 200 nM, pH 7.0, 2 h) was 90%. For the same compound, the “Yield of indigoid dye” value ([4]; 33 at 18 μM, enzyme 200 nM, pH 7.0, 2 h) was 85%, the “Yield of indigoid dye” value ([4]; 33 at 32 μM, enzyme 200 nM, pH 7.0, 2 h) was 86% and the “Yield of indigoid dye” value ([4]; 33 at 56 μM, enzyme 200 nM, pH 7.0, 2 h) was 89%. The “Yield (%) β-glucosidase from Agrobacterium” value [4, 7] was 99% and 99 ± 5^g %, the “Yield of indigoid dye” value ([4]; pH 4, 33 100 μM, enzyme 200 nM, phosphate buffer, 37° C., 3 h) was 6% and the “Yield of indigoid dye” value ([4]; pH 5, 33 100 μM, enzyme 200 nM, phosphate buffer, 37° C., 3 h) was 38%. The “Yield of indigoid dye” value ([4]; pH 6-8, 10 nM enzyme, 33 100 μM, 2 h) was 50-71%, the “Yield of indigoid dye” value ([4]; pH 6-9, 33 100 μM, enzyme 200 nM, 3 h) was “High to quantitative yields” and the “Yield (%) rat liver homogenate” value ([1]; ε = 2.6 × 10^4 M^-1 cm^-1 measured for 43) was < 5%. The “Yield (%) β-glucosidase from Agrobacterium plus rat liver homogenate” value [5] was 81% and 81 ± 5%.

For `O=C(NCCOCCOCCNc1nc(OCCOCCOCCOc2c(Br)cc3[nH]cc(OC4O[C@H](CO)[C@@H](O)[C@H](O)[C@H]4O)c3c2Br)nc(N2CC[N+](CCCO)(CCCS(=O)(=O)[O-])CC2)n1)OC[C@@H]1[C@@H]2CCC#CCC[C@@H]21` (stereo partly drawn) [Indoxyl 41], the “Yield (%) β-glucosidase from Agrobacterium” value [4, 7] was 106% and 106 ± 4^g % and the Solubility [6] was > 400 µM.
